From patent US20030130180A1, “Utilization of an aminopeptidase inhibitor” (priority 2000, published 2003)

Tested on: Karpas cells
Test: Detection of surface protein combinations of the protein network on untreated (V1) and actinonin-treated (V2) Karpas cells
Type: cell-based
Conditions: for V2 no. of cells: actinonin-treated Karpas cells
Source text: Principally, detecting of the surface protein combinations may comprise procedural steps of an automated method for determining molecular classes, molecular groups or molecular parts in a solid or liquid object according to DE 197 09 348 C. In these steps, surface proteins may be examined and measured in one and the same object, i.e. in a sample of immune cells and/or tumor cells for example, by sequentially applying reagent solutions Yn (n=1,2,3, . . . N) by means of an automated apparatus, said procedural steps being: I. taking a first reagent solution Y1 from a vessel containing the reagent solution, II. applying said reagent solution Y1 to the object which is on an object slide, III. allowing the reagent solution to react for an automatically set period of time, IV. recording at least one individual labeling pattern of the object previously labeled with said first reagent solution Y1, V. repeating steps I-IV by applying said first reagent solution Y1 or a second reagent solution Y2 or a mixture of said first and second reagent solutions, and VI. repeating steps I to V with further reagent solutions Yn (n=2,3, . . . N) or a mixture thereof and whereby the labeling distribution patterns obtained in each cycle of the method are turned into a complex molecular combination pattern of the object to be examined by computer-aided image overlay. From this combination pattern, information may be gained on the presence of the above mentioned proteins, thus also allowing detection of the surface protein combinations, if the reagent solutions used contain labeled substances directed against the proteins in question. In numerous examinations, it was possible to identify the 30 cell surface proteins already listed above which belong to a specific protein network controlling the early polarization stages of tumor cells and immune cells. In a further examination, surface protein combinations of this protein network of Karpas cells were detected, both in untreated form and after treatment with the aminopeptidase inhibitor actinonin. For this purpose, two groups V1 and V2 of Karpas cells were formed, with the cells of group Vl remaining untreated, while the cells of group V2 were treated with actinonin. Table 2 lists those surface protein combinations which are present both in the actinonin-treated cells and in the untreated cells. However, this table and the further tables 3 and 4 only give examples of 18 of the 30 proteins, with the detected proteins being designated 1 and the non-detected proteins being designated 0. The proteins are continuously numbered 1 to 18, with the nomenclature being notable from table 1. [table] The cell numbers stated in tables 2 to 4 refer to each 1,000 cells examined in groups V1 and V2. Table 3 lists the surface protein combinations which only occur in the untreated Karpas cells and are never found in the actinonin-treated Karpas cells. The number of protein combinations listed in this table 3 amounts to 131. Finally, table 4 exclusively lists those surface protein combinations which occur exclusively in the actinonin-treated Karpas cells. It may be gathered from tables 2 to 4 that, if one examines merely 18 proteins of the 30 proteins, a total of 394 different surface protein combinations will occur, with a total of 334 different combinations occurring in the untreated cells and a total of 263 different combinations being detected in the treated cells.

CCCCC[C@H](CC(=O)NO)C(=O)N[C@H](C(=O)N1CCC[C@H]1CO)C(C)C [actinonin]
V2 No. of cells In 1/1000 (actinonin-treated Karpas cells (V2), surface protein combination No. 118, binary code 000100010100000000): 0.0 1/1000 | V2 No. of cells In 1/1000 (actinonin-treated Karpas cells (V2), surface protein combination No. 119, binary code 000100010001011000): 0.0 1/1000 | V2 No. of cells In 1/1000 (actinonin-treated Karpas cells (V2), surface protein combination No. 120, binary code 000100001001001000): 0.0 1/1000 | V2 No. of cells In 1/1000 (actinonin-treated Karpas cells (V2), surface protein combination No. 121, binary code 000100000101001000): 0.0 1/1000 | V2 No. of cells In 1/1000 (actinonin-treated Karpas cells (V2), surface protein combination No. 122, binary code 000100000101000000): 0.0 1/1000 | V2 No. of cells In 1/1000 (actinonin-treated Karpas cells (V2), surface protein combination No. 123, binary code 000100000011000000): 0.0 1/1000 | V2 No. of cells In 1/1000 (actinonin-treated Karpas cells (V2), surface protein combination No. 124, binary code 000000011101011000): 0.0 1/1000 | V2 No. of cells In 1/1000 (actinonin-treated Karpas cells (V2), surface protein combination No. 125, binary code 000000011000001000): 0.0 1/1000 | V2 No. of cells In 1/1000 (actinonin-treated Karpas cells (V2), surface protein combination No. 126, binary code 000000010100000100): 0.0 1/1000 | V2 No. of cells In 1/1000 (actinonin-treated Karpas cells (V2), surface protein combination No. 127, binary code 000000010000011000): 0.0 1/1000 | V2 No. of cells In 1/1000 (actinonin-treated Karpas cells (V2), surface protein combination No. 128, binary code 000000010000000100): 0.0 1/1000 | V2 No. of cells In 1/1000 (actinonin-treated Karpas cells (V2), surface protein combination No. 129, binary code 000000001011000000): 0.0 1/1000 | V2 No. of cells In 1/1000 (actinonin-treated Karpas cells (V2), surface protein combination No. 130, binary code 000000000001001100): 0.0 1/1000 | V2 No. of cells In 1/1000 (actinonin-treated Karpas cells (V2), surface protein combination No. 131, binary code 000000000001000100): 0.0 1/1000 | V2 no. of cells In 1/1OOO, total (actinonin-treated Karpas cells (V2), total over all 203 protein combinations of Table 2): 990.9 1/1OOO | V2 No. of cells In 1/1000, total (actinonin-treated Karpas cells (V2), total over the 131 surface protein combinations of Table 3): 0 1/1000 | V2 no. of cells (protein code No. 1, proteins 1-18 binary 000000000000000000): 153.2 1/1OOO | V2 no. of cells (protein code No. 2, proteins 1-18 binary 001000010101001000): 91.9 1/1OOO | V2 no. of cells (protein code No. 3, proteins 1-18 binary 001000010001000000): 57.6 1/1OOO | V2 no. of cells (protein code No. 4, proteins 1-18 binary 000000010001000000): 62.2 1/1OOO | V2 no. of cells (protein code No. 5, proteins 1-18 binary 001000010001001000): 37.9 1/1OOO | V2 no. of cells (protein code No. 6, proteins 1-18 binary 001000010101000000): 44.3 1/1OOO | V2 no. of cells (protein code No. 7, proteins 1-18 binary 001100010101001000): 37.6 1/1OOO | V2 no. of cells (protein code No. 8, proteins 1-18 binary 000000010000000000): 41.8 1/1OOO | V2 no. of cells (protein code No. 9, proteins 1-18 binary 001000010111001000): 31.4 1/1OOO | V2 no. of cells (protein code No. 10, proteins 1-18 binary 001100010111011000): 29.7 1/1OOO | V2 no. of cells (protein code No. 11, proteins 1-18 binary 000000000001000000): 29.3 1/1OOO | V2 no. of cells (protein code No. 12, proteins 1-18 binary 001100010111001000): 24.2 1/1OOO | V2 no. of cells (protein code No. 13, proteins 1-18 binary 001000010011001000): 15.4 1/1OOO | V2 no. of cells (protein code No. 14, proteins 1-18 binary 000000010101000000): 22.3 1/1OOO | V2 no. of cells (protein code No. 15, proteins 1-18 binary 101100010111011000): 17.3 1/1OOO | V2 no. of cells (protein code No. 16, proteins 1-18 binary 001000010111011000): 15.0 1/1OOO | V2 no. of cells (protein code No. 17, proteins 1-18 binary 001000010101011000): 15.5 1/1OOO | V2 no. of cells (protein code No. 18, proteins 1-18 binary 001100010101011000): 9.7 1/1OOO | V2 no. of cells (protein code No. 19, proteins 1-18 binary 000000010101001000): 13.4 1/1OOO | V2 no. of cells (protein code No. 20, proteins 1-18 binary 000000000100000000): 14.5 1/1OOO | V2 no. of cells (protein code No. 21, proteins 1-18 binary 001100010001001000): 6.3 1/1OOO | V2 no. of cells (protein code No. 22, proteins 1-18 binary 001000010011000000): 6.7 1/1OOO | V2 no. of cells (protein code No. 23 (second line so numbered), proteins 1-18 binary 000000000101000000): 11.0 1/1OOO | V2 no. of cells (protein code No. 23, proteins 1-18 binary 001000000001000000): 7.4 1/1OOO | V2 no. of cells (protein code No. 24, proteins 1-18 binary 001000010000000000): 5.7 1/1OOO | V2 no. of cells (protein code No. 25, proteins 1-18 binary 000000000000001000): 7.3 1/1OOO | V2 no. of cells (protein code No. 27, proteins 1-18 binary 010000001100000000): 7.5 1/1OOO | V2 no. of cells (protein code No. 28, proteins 1-18 binary 000000010100000000): 8.9 1/1OOO | V2 no. of cells (protein code No. 29, proteins 1-18 binary 000000010001001000): 7.0 1/1OOO | V2 no. of cells (protein code No. 30, proteins 1-18 binary 001100010011001000): 4.0 1/1OOO | V2 no. of cells (protein code No. 31, proteins 1-18 binary 101000010111011000): 2.8 1/1OOO | V2 no. of cells (protein code No. 32, proteins 1-18 binary 000000001000000000): 6.1 1/1OOO | V2 no. of cells (protein code No. 33, proteins 1-18 binary 001000010111000000): 5.3 1/1OOO | V2 no. of cells (protein code No. 34, proteins 1-18 binary 001000010011011000): 3.2 1/1OOO | V2 no. of cells (protein code No. 35, proteins 1-18 binary 001000010001011000): 4.8 1/1OOO | V2 no. of cells (protein code No. 37, proteins 1-18 binary 010000001100001000): 3.9 1/1OOO | V2 no. of cells (protein code No. 38 (first line so numbered), proteins 1-18 binary 000000001100000000): 5.4 1/1OOO | V2 no. of cells (protein code No. 38 (second line so numbered), proteins 1-18 binary 001000011101001000): 4.3 1/1OOO | V2 no. of cells (protein code No. 39, proteins 1-18 binary 000000010011000000): 2.5 1/1OOO | V2 no. of cells (protein code No. 40, proteins 1-18 binary 001000000101000000): 4.7 1/1OOO | V2 no. of cells (protein code No. 41, proteins 1-18 binary 001100010011011000): 4.0 1/1OOO | V2 no. of cells (protein code No. 42, proteins 1-18 binary 001100010101000000): 0.8 1/1OOO | V2 no. of cells (protein code No. 43, proteins 1-18 binary 001000000000000000): 2.8 1/1OOO | V2 no. of cells (protein code No. 44, proteins 1-18 binary 001000011101000000): 3.7 1/1OOO | V2 no. of cells (protein code No. 45, proteins 1-18 binary 001100010001000000): 0.6 1/1OOO | V2 no. of cells (protein code No. 46, proteins 1-18 binary 001000011001000000): 2.5 1/1OOO | V2 no. of cells (protein code No. 47, proteins 1-18 binary 010000001100001100): 2.2 1/1OOO | V2 no. of cells (protein code No. 48, proteins 1-18 binary 101100010101011000): 2.2 1/1OOO | V2 no. of cells (protein code No. 49, proteins 1-18 binary 001000010100000000): 2.7 1/1OOO | V2 no. of cells (protein code No. 50, proteins 1-18 binary 011000011101001000): 2.4 1/1OOO | V2 no. of cells (protein code No. 51, proteins 1-18 binary 001000011111001000): 2.0 1/1OOO | V2 no. of cells (protein code No. 52, proteins 1-18 binary 001100010001011000): 1.0 1/1OOO | V2 no. of cells (protein code No. 53, proteins 1-18 binary 001000010000001000): 1.0 1/1OOO
